ChEMBL document CHEMBL1201862, “PubChem BioAssay data set” (2004)
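Following 48 hours of exposure in 96-well plates, responses at five concentrations were used to interpolate endpoints linearly. At the GI50, growth is halved.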 Activity calls are given as the source filed them. No stated cut-off is given here; in the data, active = GI50 up to about 1.1 µM and inactive = higher. Residues, ends and D or L forms follow the SMILES beside them. *: point of attachment. Cbz = O=C(OCc1ccccc1)*; Boc = CC(C)(C)OC(=O)*; OSu = O=C1CCC(=O)N1O*; Bn = c1ccc(C*)cc1

Tests used:
Assay in all cases: NCI-60 cell line screen, 48 h
SR = test system: SR
T47D = test system: T47D
UACC-62 = test system: UACC-62
MOLT-4 = test system: MOLT-4
NCI-H522 = test system: NCI-H522
NCI/ADR-RES = test system: NCI/ADR-RES
IGROV-1 = test system: IGROV-1
SNB-75 = test system: SNB-75
K562 = test system: K562
DU-145 = test system: DU-145
CCRF-CEM = test system: CCRF-CEM
EKVX = test system: EKVX
SF-539 = test system: SF-539
OVCAR-5 = test system: OVCAR-5
MDA-MB-231 = test system: MDA-MB-231
OVCAR-4 = test system: OVCAR-4
NCI-H23 = test system: NCI-H23
Hs-578T = test system: Hs-578T
MDA-MB-435 = test system: MDA-MB-435
M14 = test system: M14

SMILES	GI50 (SR)	GI50 (T47D)	GI50 (UACC-62)	GI50 (MOLT-4)	GI50 (NCI-H522)	GI50 (NCI/ADR-RES)	GI50 (IGROV-1)	GI50 (SNB-75)	GI50 (K562)	GI50 (DU-145)	GI50 (CCRF-CEM)	GI50 (EKVX)	GI50 (SF-539)	GI50 (OVCAR-5)	GI50 (MDA-MB-231)	GI50 (OVCAR-4)	GI50 (NCI-H23)	GI50 (Hs-578T)	GI50 (MDA-MB-435)	GI50 (M14)
C[C@H](CSC(=O)c1ccccc1)C(=O)N1c2ccccc2C[C@H]1C(=O)O	61.1 µM (inactive)	> 100 µM (inactive)	> 100 µM (inactive)	75.7 µM (inactive)	30.4 µM (inactive)	50.6 µM (inactive)	> 100 µM (inactive)	35.3 µM (inactive)	17.5 µM (inactive)	> 100 µM (inactive)	32.1 µM (inactive)	> 100 µM (inactive)	> 100 µM (inactive)	> 100 µM (inactive)	> 100 µM (inactive)	> 100 µM (inactive)	> 100 µM (inactive)	> 100 µM (inactive)		
c1cc(-c2ccc(-c3ccsc3)s2)cs1	28.2 µM (inactive)	> 100 µM (inactive)	54.2 µM (inactive)	70.6 µM (inactive)	> 100 µM (inactive)	30.4 µM (inactive)	80.2 µM (inactive)	23.9 µM (inactive)	> 100 µM (inactive)	> 100 µM (inactive)	12.9 µM (inactive)	85.5 µM (inactive)	36.4 µM (inactive)	> 100 µM (inactive)		18.1 µM (inactive)	16.2 µM (inactive)	40.5 µM (inactive)	> 100 µM (inactive)	31 µM (inactive)
O=C1CCCCC/C1=C\c1ccccc1	> 100 µM (inactive)	> 100 µM (inactive)	63.4 µM (inactive)	80.9 µM (inactive)	> 100 µM (inactive)		> 100 µM (inactive)	87.3 µM (inactive)	> 100 µM (inactive)	> 100 µM (inactive)		> 100 µM (inactive)		> 100 µM (inactive)	> 100 µM (inactive)	67.6 µM (inactive)	> 100 µM (inactive)	> 100 µM (inactive)	76 µM (inactive)	> 100 µM (inactive)
CCOC(=O)CCC(C(=O)OCC)n1nc2ccc(Nc3c(C)[n+]([O-])c4ccc(Cl)cc4[n+]3[O-])cc2n1 (stereo unspecified)	34.1 µM (inactive)	21.7 µM (inactive)	26.6 µM (inactive)	27.9 µM (inactive)	30.1 µM (inactive)	18.8 µM (inactive)	42.4 µM (inactive)		41.4 µM (inactive)	20.1 µM (inactive)	41.2 µM (inactive)	17.5 µM (inactive)	20.7 µM (inactive)	30.9 µM (inactive)		28.8 µM (inactive)	21.5 µM (inactive)	21.4 µM (inactive)	30.2 µM (inactive)	24.1 µM (inactive)
CC1(C)CCc2c(cc3c(c2O)CCC(C)(C)O3)O1	76.6 µM (inactive)	41.8 µM (inactive)	> 100 µM (inactive)	62.4 µM (inactive)	61.1 µM (inactive)	> 100 µM (inactive)	> 100 µM (inactive)	80.5 µM (inactive)	48.8 µM (inactive)	> 100 µM (inactive)	67.8 µM (inactive)	> 100 µM (inactive)	> 100 µM (inactive)	> 100 µM (inactive)	> 100 µM (inactive)	> 100 µM (inactive)	> 100 µM (inactive)	> 100 µM (inactive)		> 100 µM (inactive)
C[C@H]1S[C@H](c2c(F)cccc2F)n2c1nc1ccccc12		29.2 µM (inactive)	63.1 µM (inactive)	40.6 µM (inactive)		44.2 µM (inactive)	> 100 µM (inactive)	> 100 µM (inactive)	35.3 µM (inactive)	> 100 µM (inactive)	40.5 µM (inactive)	66.2 µM (inactive)		66.8 µM (inactive)	68.7 µM (inactive)	45.5 µM (inactive)	34.8 µM (inactive)	88.7 µM (inactive)	34 µM (inactive)	38.5 µM (inactive)
C=CCCCC1(C)CCNC1=S (stereo unspecified)		> 100 µM (inactive)	> 100 µM (inactive)	66.5 µM (inactive)	> 100 µM (inactive)		> 100 µM (inactive)	> 100 µM (inactive)	> 100 µM (inactive)	> 100 µM (inactive)		> 100 µM (inactive)	> 100 µM (inactive)	> 100 µM (inactive)	> 100 µM (inactive)	> 100 µM (inactive)	> 100 µM (inactive)	> 100 µM (inactive)	> 100 µM (inactive)	> 100 µM (inactive)
COc1ccc2c(c1)CN1C(=N2)CSC1c1ccccc1Cl (stereo unspecified)	7.76 µM (inactive)	27.7 µM (inactive)	17.6 µM (inactive)	0.54 µM (active)	12.9 µM (inactive)	10.1 µM (inactive)	14.9 µM (inactive)	19 µM (inactive)	5.33 µM (inactive)			16.6 µM (inactive)	14.5 µM (inactive)	18.5 µM (inactive)	21.8 µM (inactive)	20.1 µM (inactive)	1.66 µM (inactive)	27.9 µM (inactive)	18.8 µM (inactive)	18.3 µM (inactive)
COC(=O)Cc1c(C(=O)CC(C)(C)n2cnc(CCN3C(=O)CCC3=O)c2)[nH]c2ccccc12	34.5 µM (inactive)		> 100 µM (inactive)	> 100 µM (inactive)	32.4 µM (inactive)	> 100 µM (inactive)	89.3 µM (inactive)	27 µM (inactive)	> 100 µM (inactive)	> 100 µM (inactive)	> 100 µM (inactive)	> 100 µM (inactive)	> 100 µM (inactive)	> 100 µM (inactive)	> 100 µM (inactive)	> 100 µM (inactive)	> 100 µM (inactive)	> 100 µM (inactive)	> 100 µM (inactive)	> 100 µM (inactive)
CC(C)(C)OC(=O)NC(Cc1ccc(OCc2ccccc2)cc1)C(=O)NC(CCCCNC(=O)OCc1ccccc1)C(=O)NC(CCCCNC(=O)OCc1ccccc1)C(=O)ON1C(=O)CCC1=O (stereo unspecified) (Boc-Tyr(Bn)-Lys(Cbz)-Lys(Cbz)-OSu; configuration not given here)	> 100 µM (inactive)	21 µM (inactive)	15.7 µM (inactive)	> 100 µM (inactive)	16.4 µM (inactive)	> 100 µM (inactive)	31.5 µM (inactive)	51.6 µM (inactive)		88.5 µM (inactive)	66.2 µM (inactive)	> 100 µM (inactive)		36.7 µM (inactive)		60.7 µM (inactive)	28.6 µM (inactive)	16.4 µM (inactive)	33.1 µM (inactive)	> 100 µM (inactive)
Cn1ncc2c(NCCc3ccccc3)nc(Cl)nc21		11.4 µM (inactive)	5.97 µM (inactive)	14.7 µM (inactive)	21.9 µM (inactive)	16.4 µM (inactive)	33.1 µM (inactive)	21.1 µM (inactive)	17.6 µM (inactive)	44.9 µM (inactive)		1.75 µM (inactive)		14 µM (inactive)	3.97 µM (inactive)	18.8 µM (inactive)	24.8 µM (inactive)	8.93 µM (inactive)	20.6 µM (inactive)	15 µM (inactive)
